Assay results: US8802597B2, “Herbicidal pyrimidines” (E I du Pont de Nemours and Company, priority 2003, dated 2014)
Where two headings read alike, the source gives them in different places.

Tests used:
Format in all cases: in vivo
wild oat (Avena fatua) = experiment: Test B postemergence; details: Avena fatua, post-emergence
Procedure, shortened: (§1)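 Under greenhouse conditions, seeded pots and young plants (1- to 4-leaf, 2 to 18 cm) were treated at the same time with test chemicals in a non-phytotoxic solvent mixture containing surfactant. Response was assessed visually after 13 to 15 days, from 0 (no effect) to 100 (complete control).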

[1] = test system: blackgrass (Alopecurus myosuroides); experiment: Test B postemergence; details: Alopecurus myosuroides, post-emergence
Procedure, shortened: as §1

[2] = test system: umbrella sedge (Cyperus difformis); experiment: Test B flooded paddy test; details: Cyperus difformis, Flood, 1000 g ai/ha; scale 0 to 100; read-out: Plant response rating, Sedge, Umbrella
Procedure, shortened: (§2)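 Rice, umbrella sedge, duck salad and barnyardgrass grown to 2-leaf stage under flooded paddy conditions and treated with formulated test chemicals. Kept in greenhouse 13–15 days, then visually rated against untreated controls on a 0–100 scale (0 no effect, 100 complete control).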

[3] = test system: duck salad (Heteranthera limosa); experiment: Test B flooded paddy test; details: Heteranthera limosa, Flood, 1000 g ai/ha; scale 0 to 100; read-out: Plant response rating, Ducksalad
Procedure, shortened: as §2

rice (Oryza sativa) = experiment: Test B flooded paddy test; details: Oryza sativa, Flood, 1000 g ai/ha; scale 0 to 100; read-out: Plant response rating, Rice
Procedure, shortened: as §2

[4] = test system: barnyardgrass (Echinochloa crus-galli); experiment: Test B flooded paddy test; details: Echinochloa crus-galli, Flood, 1000 g ai/ha; scale 0 (no effect) to 100 (complete control); read-out: Plant response rating, Barnyardgrass
Procedure, shortened: as §2

[5] = test system: lambsquarters (Chenopodium album); experiment: Test B pre/postemergence; details: Chenopodium album; for pest or weed control at 125 g/ha: 125 g ai/ha; for pest or weed control at 500 g/ha: 500 g ai/ha
Procedure, shortened: as §1

corn (Zea mays) = experiment: Test B pre/postemergence; details: Zea mays
Procedure, shortened: as §1

[6] = test system: wheat (Triticum aestivum); experiment: Test B pre/postemergence; details: Triticum aestivum; for plant injury at 125 g/ha: 125 g ai/ha; for plant injury at 500 g/ha: 500 g ai/ha
Procedure, shortened: as §1

[7] = test system: cocklebur (Xanthium strumarium); experiment: Test B pre/postemergence; details: Xanthium strumarium; for pest or weed control at 125 g/ha: 125 g ai/ha; for pest or weed control at 500 g/ha: 500 g ai/ha
Procedure, shortened: as §1

[8] = test system: velvetleaf (Abutilon theophrasti); experiment: Test B pre/postemergence; details: Abutilon theophrasti; for pest or weed control at 125 g/ha: 125 g ai/ha; for pest or weed control at 500 g/ha: 500 g ai/ha
Procedure, shortened: as §1

[9] = test system: Surinam grass (Brachiaria decumbens); experiment: Test B pre/postemergence; details: Urochloa decumbens; for pest or weed control at 125 g/ha: 125 g ai/ha; for pest or weed control at 500 g/ha: 500 g ai/ha
Procedure, shortened: as §1

[10] = test system: crabgrass (Digitaria sanguinalis); experiment: Test B pre/postemergence; details: Digitaria sanguinalis; for pest or weed control at 125 g/ha: 125 g ai/ha; for pest or weed control at 500 g/ha: 500 g ai/ha
Procedure, shortened: as §1

[11] = test system: pigweed (Amaranthus retroflexus); experiment: Test B pre/postemergence; details: Amaranthus retroflexus; for pest or weed control at 125 g/ha: 125 g ai/ha; for pest or weed control at 500 g/ha: 500 g ai/ha
Procedure, shortened: as §1

[12] = test system: giant foxtail (Setaria faberii); experiment: Test B pre/postemergence; details: Setaria faberi; for pest or weed control at 125 g/ha: 125 g ai/ha; for pest or weed control at 500 g/ha: 500 g ai/ha
Procedure, shortened: as §1

[13] = test system: morningglory (Ipomoea coccinea); experiment: Test B pre/postemergence; details: Ipomoea; for pest or weed control at 125 g/ha: 125 g ai/ha; for pest or weed control at 500 g/ha: 500 g ai/ha
Procedure, shortened: as §1

[14] = test system: barnyardgrass (Echinochloa crus-galli); experiment: Test B pre/postemergence; details: Echinochloa crus-galli; for pest or weed control at 125 g/ha: 125 g ai/ha; for pest or weed control at 500 g/ha: 500 g ai/ha
Procedure, shortened: as §1

## CCOC(=O)c1nc(C2CC2)nc(N)c1F [Compound 30]
Wild oat (Avena fatua); 125 g ai/ha, scale 0 to 100 (0 no effect, 100 complete control), read-out: Oat, Wild plant response rating
  pest or weed control at 125 g/ha: 60%
Wild oat (Avena fatua); 500 g ai/ha, scale 0 to 100, read-out: Plant response rating, Oat, Wild
  pest or weed control at 500 g/ha: 70%
[1]; 125 g ai/ha, scale 0 to 100 (0 no effect, 100 complete control), read-out: Blackgrass plant response rating
  pest or weed control at 125 g/ha: 60%
[1]; 500 g ai/ha, scale 0 to 100, read-out: Plant response rating, Blackgrass
  pest or weed control at 500 g/ha: 70%
[2]
  pest or weed control at 1000 g/ha: 0%
[3]
  pest or weed control at 1000 g/ha: 0%
Rice (Oryza sativa)
  plant injury at 1000 g/ha: 0%
[4]
  pest or weed control at 1000 g/ha: 0%
[5]; post-emergence, Postemergence, scale 0 to 100 (0 no effect, 100 complete control), read-out: Lambsquarters plant response rating
  pest or weed control at 125 g/ha: 90%
[5]; post-emergence, Postemergence, scale 0 to 100, read-out: Plant response rating, Lambsquarters
  pest or weed control at 500 g/ha: 100%
[5]; pre-emergence, Preemergence, scale 0 to 100 (0 no effect, 100 complete control), read-out: Plant response rating, Lambsquarters
  pest or weed control at 125 g/ha: 80%
[5]; pre-emergence, Preemergence, scale 0 to 100 (0 no effect, 100 complete control), read-out: Lambsquarters plant response rating
  pest or weed control at 500 g/ha: 90%
Corn (Zea mays); post-emergence, Postemergence, 125 g ai/ha, scale 0 to 100 (0 no effect, 100 complete control), read-out: Corn plant response rating
  plant injury at 125 g/ha: 0%
Corn (Zea mays); post-emergence, Postemergence, 500 g ai/ha, scale 0 to 100
  Corn plant response rating (crop injury, 0 = no effect, 100 = complete kill) at 500 g/ha: 30%
Corn (Zea mays); pre-emergence, Preemergence, 125 g ai/ha, scale 0 to 100 (0 no effect, 100 complete control)
  Corn plant response rating (crop injury, 0 = no effect, 100 = complete kill) at 125 g/ha: 10%
Corn (Zea mays); pre-emergence, Preemergence, 500 g ai/ha, scale 0 to 100 (0 no effect, 100 complete control), read-out: Corn plant response rating
  plant injury at 500 g/ha: 80%
[6]; post-emergence, Postemergence, scale 0 to 100 (0 no effect, 100 complete control), read-out: Wheat plant response rating
  plant injury at 125 g/ha: 50%
[6]; post-emergence, Postemergence, scale 0 to 100, read-out: Plant response rating, Wheat
  plant injury at 500 g/ha: 60%
[6]; pre-emergence, Preemergence, scale 0 to 100 (0 no effect, 100 complete control), read-out: Plant response rating, Wheat
  plant injury at 125 g/ha: 30%
[6]; pre-emergence, Preemergence, scale 0 to 100 (0 no effect, 100 complete control), read-out: Wheat plant response rating
  plant injury at 500 g/ha: 60%
[7]; post-emergence, Postemergence, scale 0 to 100 (0 no effect, 100 complete control), read-out: Cocklebur plant response rating
  pest or weed control at 125 g/ha: 100%
[7]; post-emergence, Postemergence, scale 0 to 100, read-out: Plant response rating, Cocklebur
  pest or weed control at 500 g/ha: 100%
[7]; pre-emergence, Preemergence, scale 0 to 100 (0 no effect, 100 complete control), read-out: Plant response rating, Cocklebur
  pest or weed control at 125 g/ha: 60%
[7]; pre-emergence, Preemergence, scale 0 to 100 (0 no effect, 100 complete control), read-out: Cocklebur plant response rating
  pest or weed control at 500 g/ha: 100%
[8]; post-emergence, Postemergence, scale 0 to 100 (0 no effect, 100 complete control), read-out: Velvetleaf plant response rating
  pest or weed control at 125 g/ha: 50%
[8]; post-emergence, Postemergence, scale 0 to 100, read-out: Plant response rating, Velvetleaf
  pest or weed control at 500 g/ha: 90%
[8]; pre-emergence, Preemergence, scale 0 to 100 (0 no effect, 100 complete control), read-out: Plant response rating, Velvetleaf
  pest or weed control at 125 g/ha: 10%
[8]; pre-emergence, Preemergence, scale 0 to 100 (0 no effect, 100 complete control), read-out: Velvetleaf plant response rating
  pest or weed control at 500 g/ha: 80%
[9]; post-emergence, Postemergence, scale 0 to 100 (0 no effect, 100 complete control), read-out: Surinam Grass plant response rating
  pest or weed control at 125 g/ha: 10%
[9]; post-emergence, Postemergence, scale 0 to 100, read-out: Plant response rating, Surinam Grass
  pest or weed control at 500 g/ha: 80%
[9]; pre-emergence, Preemergence, scale 0 to 100 (0 no effect, 100 complete control), read-out: Plant response rating, Surinam Grass
  pest or weed control at 125 g/ha: 0%
[9]; pre-emergence, Preemergence, scale 0 to 100 (0 no effect, 100 complete control), read-out: Surinam Grass plant response rating
  pest or weed control at 500 g/ha: 80%
[10]; post-emergence, Postemergence, scale 0 to 100 (0 no effect, 100 complete control), read-out: Crabgrass plant response rating
  pest or weed control at 125 g/ha: 30%
[10]; post-emergence, Postemergence, scale 0 to 100, read-out: Plant response rating, Crabgrass
  pest or weed control at 500 g/ha: 90%
[10]; pre-emergence, Preemergence, scale 0 to 100 (0 no effect, 100 complete control), read-out: Plant response rating, Crabgrass
  pest or weed control at 125 g/ha: 50%
[10]; pre-emergence, Preemergence, scale 0 to 100 (0 no effect, 100 complete control), read-out: Crabgrass plant response rating
  pest or weed control at 500 g/ha: 90%
[11]; post-emergence, Postemergence, scale 0 to 100 (0 no effect, 100 complete control), read-out: Pigweed plant response rating
  pest or weed control at 125 g/ha: 90%
[11]; post-emergence, Postemergence, scale 0 to 100, read-out: Plant response rating, Pigweed
  pest or weed control at 500 g/ha: 100%
[11]; pre-emergence, Preemergence, scale 0 to 100 (0 no effect, 100 complete control), read-out: Plant response rating, Pigweed
  pest or weed control at 125 g/ha: 50%
[11]; pre-emergence, Preemergence, scale 0 to 100 (0 no effect, 100 complete control), read-out: Pigweed plant response rating
  pest or weed control at 500 g/ha: 90%
[12]; post-emergence, Postemergence, scale 0 to 100 (0 no effect, 100 complete control), read-out: Foxtail, Giant plant response rating
  pest or weed control at 125 g/ha: 0%
[12]; post-emergence, Postemergence, scale 0 to 100, read-out: Plant response rating, Foxtail, Giant
  pest or weed control at 500 g/ha: 90%
[12]; pre-emergence, Preemergence, scale 0 to 100 (0 no effect, 100 complete control), read-out: Plant response rating, Foxtail, Giant
  pest or weed control at 125 g/ha: 10%
[12]; pre-emergence, Preemergence, scale 0 to 100 (0 no effect, 100 complete control), read-out: Foxtail, Giant plant response rating
  pest or weed control at 500 g/ha: 80%
[13]; post-emergence, Postemergence, scale 0 to 100 (0 no effect, 100 complete control), read-out: Morningglory plant response rating
  pest or weed control at 125 g/ha: 90%
[13]; post-emergence, Postemergence, scale 0 to 100, read-out: Plant response rating, Morningglory
  pest or weed control at 500 g/ha: 100%
[13]; pre-emergence, Preemergence, scale 0 to 100 (0 no effect, 100 complete control), read-out: Plant response rating, Morningglory
  pest or weed control at 125 g/ha: 90%
[13]; pre-emergence, Preemergence, scale 0 to 100 (0 no effect, 100 complete control), read-out: Morningglory plant response rating
  pest or weed control at 500 g/ha: 100%
[14]; post-emergence, Postemergence, scale 0 to 100 (0 no effect, 100 complete control), read-out: Barnyardgrass plant response rating
  pest or weed control at 125 g/ha: 0%
[14]; post-emergence, Postemergence, scale 0 to 100, read-out: Plant response rating, Barnyardgrass
  pest or weed control at 500 g/ha: 80%
[14]; pre-emergence, Preemergence, scale 0 to 100 (0 no effect, 100 complete control), read-out: Plant response rating, Barnyardgrass
  pest or weed control at 125 g/ha: 10%
[14]; pre-emergence, Preemergence, scale 0 to 100 (0 no effect, 100 complete control), read-out: Barnyardgrass plant response rating
  pest or weed control at 500 g/ha: 40%
